In general, IC50 refers to the concentration at which inhibition is half-maximal. Read a low IC50 as inhibition by little substance.

The record followed here is patent US9242987B2, “Heterocyclyl pyrazolopyrimidine analogues as JAK inhibitors” (Cellzome Limited, priority 2009, dated 2016).

One test addresses T1, JAK2 (Homo sapiens, UniProt O60674).
T1 construct: endogenous in cells; host or cells: Mixed Molt4/Ramos lysate (1:2)
Briefly: Kinobeads assay, JAK2. Particulars: mixed Molt4/Ramos cell lysate, dot blot detection. Type of test: binding. Put shortly:
(§1)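 Lysate from Molt4 and Ramos cells combined 1:2 at 10 mg/mL total protein met test compound and an aminopyrido-pyrimidine affinity matrix for 3 h in the cold. Captured JAK2 and JAK3, after elution, were measured by specific-antibody dot blot on an infrared system; dose-response curves yielded IC50.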

The target in the next test is T2, JAK3 (Homo sapiens, UniProt P52333).
T2 construct: endogenous in cells; host or cells: Mixed Molt4/Ramos lysate (1:2)
T2 sequence (P52333 1-1124): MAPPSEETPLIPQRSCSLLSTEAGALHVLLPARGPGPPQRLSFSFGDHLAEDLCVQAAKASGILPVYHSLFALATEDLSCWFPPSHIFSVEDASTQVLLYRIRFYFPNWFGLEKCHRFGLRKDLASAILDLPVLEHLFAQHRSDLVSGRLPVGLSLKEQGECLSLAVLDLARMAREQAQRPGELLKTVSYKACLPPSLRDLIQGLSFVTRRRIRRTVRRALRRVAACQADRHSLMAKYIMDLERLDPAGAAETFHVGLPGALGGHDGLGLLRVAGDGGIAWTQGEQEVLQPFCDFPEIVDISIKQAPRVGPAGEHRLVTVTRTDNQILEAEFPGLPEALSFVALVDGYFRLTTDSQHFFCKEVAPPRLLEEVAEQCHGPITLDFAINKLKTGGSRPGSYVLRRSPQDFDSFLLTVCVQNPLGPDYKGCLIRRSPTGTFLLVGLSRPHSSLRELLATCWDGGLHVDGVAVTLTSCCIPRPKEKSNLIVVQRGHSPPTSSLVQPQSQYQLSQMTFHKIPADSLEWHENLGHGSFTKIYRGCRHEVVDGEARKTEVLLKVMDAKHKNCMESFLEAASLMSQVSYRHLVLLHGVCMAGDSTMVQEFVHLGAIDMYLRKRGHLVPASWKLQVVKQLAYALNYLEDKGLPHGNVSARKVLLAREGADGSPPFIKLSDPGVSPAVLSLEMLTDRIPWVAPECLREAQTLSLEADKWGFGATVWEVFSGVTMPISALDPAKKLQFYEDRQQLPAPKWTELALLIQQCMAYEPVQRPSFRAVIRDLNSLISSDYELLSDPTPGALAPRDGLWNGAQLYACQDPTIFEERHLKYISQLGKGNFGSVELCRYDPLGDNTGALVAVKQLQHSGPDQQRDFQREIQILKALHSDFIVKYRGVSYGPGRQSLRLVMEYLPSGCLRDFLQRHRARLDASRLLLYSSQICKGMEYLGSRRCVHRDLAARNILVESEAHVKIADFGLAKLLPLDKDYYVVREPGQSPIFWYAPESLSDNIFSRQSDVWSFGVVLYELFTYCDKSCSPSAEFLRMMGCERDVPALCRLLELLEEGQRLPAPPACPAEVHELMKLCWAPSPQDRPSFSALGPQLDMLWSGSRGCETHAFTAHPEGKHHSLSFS
Briefly: Kinobeads assay, JAK3. Type of test: binding. Particulars: mixed Molt4/Ramos cell lysate, dot blot detection. Put shortly:
as §1

The structures appear in SMILES notation.

T1 sequence (O60674 whole entry): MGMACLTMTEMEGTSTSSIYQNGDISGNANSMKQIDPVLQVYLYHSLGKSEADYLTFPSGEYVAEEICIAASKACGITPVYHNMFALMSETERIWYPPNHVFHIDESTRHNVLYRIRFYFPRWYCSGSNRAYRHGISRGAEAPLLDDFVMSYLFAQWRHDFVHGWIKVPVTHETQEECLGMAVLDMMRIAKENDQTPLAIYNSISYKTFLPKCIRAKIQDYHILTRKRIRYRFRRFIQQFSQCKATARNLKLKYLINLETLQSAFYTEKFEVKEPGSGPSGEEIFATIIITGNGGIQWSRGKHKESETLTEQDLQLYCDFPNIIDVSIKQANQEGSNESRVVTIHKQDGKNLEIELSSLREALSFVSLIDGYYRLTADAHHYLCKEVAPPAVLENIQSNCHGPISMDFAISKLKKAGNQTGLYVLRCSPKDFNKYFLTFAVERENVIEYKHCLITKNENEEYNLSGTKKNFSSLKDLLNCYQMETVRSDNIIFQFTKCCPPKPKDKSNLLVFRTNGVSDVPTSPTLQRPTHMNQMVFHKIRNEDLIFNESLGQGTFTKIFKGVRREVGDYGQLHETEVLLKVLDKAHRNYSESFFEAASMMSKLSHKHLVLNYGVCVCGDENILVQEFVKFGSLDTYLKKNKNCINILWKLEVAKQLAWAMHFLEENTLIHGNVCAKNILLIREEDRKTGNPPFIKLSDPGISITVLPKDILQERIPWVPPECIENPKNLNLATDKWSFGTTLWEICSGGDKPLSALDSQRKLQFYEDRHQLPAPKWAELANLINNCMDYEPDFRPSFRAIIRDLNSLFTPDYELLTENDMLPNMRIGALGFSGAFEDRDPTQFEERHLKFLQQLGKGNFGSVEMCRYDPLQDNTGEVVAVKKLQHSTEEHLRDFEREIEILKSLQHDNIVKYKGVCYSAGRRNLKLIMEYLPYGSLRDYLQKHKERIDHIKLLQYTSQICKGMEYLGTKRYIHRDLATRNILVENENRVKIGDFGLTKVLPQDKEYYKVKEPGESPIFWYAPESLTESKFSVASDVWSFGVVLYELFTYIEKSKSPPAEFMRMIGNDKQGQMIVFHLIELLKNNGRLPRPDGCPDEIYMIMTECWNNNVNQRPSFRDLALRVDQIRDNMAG

As for `O=C1COCCN1c1ccc(F)c(Cn2ncc3cnc(Nc4cnn(CCO)c4)nc32)c1F` [Example 293, 4-(2,4-Difluoro-3-((6-((1-(2-hydroxyethyl)-1H-pyrazol-4-yl)amino)-1H-pyrazolo[3,4-d]pyrimidin-1-yl)methyl)phenyl)morpholin-3-one], the IC50 on JAK2 is 1000 to 10000 nM; against JAK3 it was < 100 nM.
For `Cn1cc(Nc2ncc3cnn(Cc4c(F)ccc(N5CCNCC5)c4F)c3n2)cn1` [Example 301, 1-(2,6-Difluoro-3-(piperazin-1-yl)benzyl)-N-(1-methyl-1H-pyrazol-4-yl)-1H-pyrazolo[3,4-d]pyrimidin-6-amine], the IC50 is 1000 to 10000 nM against JAK2 and < 100 nM against JAK3.
The corresponding values for `O=C1CNCCN1c1ccc(F)c(Cn2ncc3cnc(Nc4cnn(CCO)c4)nc32)c1F` [Example 302, 1-(2,4-Difluoro-3-((6-((1-(2-hydroxyethyl)-1H-pyrazol-4-yl)amino)-1H-pyrazolo[3,4-d]pyrimidin-1-yl)methyl)phenyl)piperazin-2-one] are 1000 to 10000 nM and < 100 nM.
For the compound `OCCn1cc(Nc2ncc3cnn(Cc4c(F)ccc(N5CCNCC5)c4F)c3n2)cn1` [Example 304, 2-(4-((1-(2,6-Difluoro-3-(piperazin-1-yl)benzyl)-1H-pyrazolo[3,4-d]pyrimidin-6-yl)amino)-1H-pyrazol-1-yl)ethanol], the IC50 on JAK2 was 1000 to 10000 nM; against JAK3 it was < 100 nM.
`Fc1ccccc1Cn1ncc2cnc(Nc3cnn(CC4CCNC4)c3)nc21` (stereo not drawn) [Example 306, 1-(2-Fluorobenzyl)-N-(1-(pyrrolidin-3-ylmethyl)-1H-pyrazol-4-yl)-1H-pyrazolo[3,4-d]pyrimidin-6-amine]: the 50% inhibitory concentration (IC50) against JAK2 is 100 to 1000 nM; against JAK3 it was < 100 nM.
On the same counts, the results for `OCCn1cc(Nc2ncc3cnn(Cc4cccc(F)n4)c3n2)cn1` [Example 314, 2-(4-((1-((6-Fluoropyridin-2-yl)methyl)-1H-pyrazolo[3,4-d]pyrimidin-6-yl)amino)-1H-pyrazol-1-yl)ethanol] are 100 to 1000 nM and < 100 nM.
